Laboratory results taken from US10499641B2 (priority 2010, dated 2019).

Experiments:
Phytophthora infestans = assay type: in vivo; conditions: young tomato plants, sprayed, active ingredient concentration 100 ppm, inoculated 1 day after treatment, evaluation 7 days after inoculation; 100% = no infection
Plasmopara viticola = assay: Plasmopara test (grapevine)/protective; assay type: in vivo; conditions: young grapevine plants, sprayed, active ingredient concentration 10 ppm, evaluation 6 days after inoculation; 100% = no infection
Description: Plasmopara Test (Grapevine)/Protective
• Solvent: 24.5 parts by weight of acetone • 24.5 parts by weight of dimethylacetamide • Emulsifier: 1 part by weight of alkylaryl polyglycol ether
[To produce an appropriate active ingredient formulation, 1 part by weight of active ingredient is mixed with the specified amounts of solvent and emulsifier, and the concentrate is diluted with water to the desired concentration.
To test for protective efficacy, young plants are sprayed with the active ingredient formulation at the stated application rate. After the spray coating has dried on, the plants are inoculated with an aqueous spore suspension of Plasmopara viticola and then remain in an incubation cabin at approx. 20° C. and 100% relative air humidity for 1 day. Subsequently, the plants are placed in a greenhouse at approx. 21° C. and approx. 90% air humidity for 4 days. The plants are then moistened and placed in an incubation cabin for 1 day.
Evaluation follows 6 days after the inoculation. 0% means an efficacy which corresponds to that of the control, whereas an efficacy of 100% means that no infection is observed.
In this test, the following inventive compounds show, at an active ingredient concentration of 10 ppm, an efficacy of 70% or more: […]

Row | Structure (SMILES) | Eff. % (Phytophthora infestans) [%] | Eff. % (Plasmopara viticola) [%]
1 | O=C(Cn1nc(C(F)F)cc1C(F)F)N1CCC(c2nc(C3=NOC(c4cccc(C=NO)c4)C3)cs2)CC1 (mixture of isomers) [Example I-22] | 100 | 100
2 | CON=C(C)c1cccc(C2CC(c3csc(C4CCN(C(=O)Nc5cc(Cl)ccc5C)CC4)n3)=NO2)c1 (mixture of isomers) [Example I-23] | 100 | 98
3 | CCON=Cc1ccccc1C1CC(c2csc(C3CCN(C(=O)Cn4nc(C(F)F)cc4C(F)F)CC3)n2)=NO1 (mixture of isomers) [Example I-27] | 100 | 99
4 | CON=C(C)c1ccccc1C1CC(c2csc(C3CCN(C(=O)Cn4nc(C(F)(F)F)cc4C)CC3)n2)=NO1 (mixture of isomers) [Example I-31] | 100 | 97
5 | CON=C(C)c1ccccc1C1CC(c2csc(C3CCN(C(=O)Cn4nc(C(F)F)cc4C(F)F)CC3)n2)=NO1 (mixture of isomers) [Example I-32] | 100 | 85
6 | O=C(Cn1nc(C(F)F)cc1C(F)F)N1CCC(c2nc(C3=NOC(c4ccccc4C=NO)C3)cs2)CC1 (mixture of isomers) [Example I-35] | 95 | 100
7 | Cc1ccc(Cl)cc1NC(=O)N1CCC(c2nc(C3=NOC(c4ccccc4C=NO)C3)cs2)CC1 (mixture of isomers) [Example I-36] | 100 | 100
8 | CON=C(C)c1cccc(C2CC(c3csc(C4CCN(C(=O)Cn5nc(C(F)(F)F)cc5C)CC4)n3)=NO2)c1 (stereo not drawn) [Example I-3] | 100 | 97
9 | CC(=NO)c1cccc(C2CC(c3csc(C4CCN(C(=O)Cn5nc(C(F)(F)F)cc5C)CC4)n3)=NO2)c1 (stereo not drawn) [Example I-7] | 100 | 100
10 | CON=Cc1ccccc1C1CC(c2csc(C3CCN(C(=O)Cn4nc(C(F)F)cc4C(F)F)CC3)n2)=NO1 (stereo not drawn) [Example I-26, 2-{3-[2-(1-{[3,5-Bis(difluoromethyl)-1H-pyrazol-1-yl]acetyl}piperidin-4-yl)-1,3-thiazol-4-yl]-4,5-dihydro-1,2-oxazol-5-yl}benzaldehyde O-methyloxime] | 100 | 100
11 | CCON=Cc1ccccc1C1CC(c2csc(C3CCN(C(=O)Cn4nc(C(F)(F)F)cc4C)CC3)n2)=NO1 (stereo not drawn) [Example I-29] | 100 | 90
12 | CON=Cc1ccccc1C1CC(c2csc(C3CCN(C(=O)Cn4nc(C(F)(F)F)cc4C)CC3)n2)=NO1 (stereo not drawn) [Example I-34] | 100 | 87
13 | CON=Cc1ccccc1C1CC(c2csc(C3CCN(C(=O)Nc4cc(Cl)ccc4C)CC3)n2)=NO1 (stereo not drawn) [Example I-41, N-(5-Chloro-2-methylphenyl)-4-[4-(5-{2-[(methoxyimino)methyl]phenyl}-4,5-dihydro-1,2-oxazol-3-yl)-1,3-thiazol-2-yl]piperidine-1-carboxamide] | 100 | 81
14 | C#CCOCc1ccccc1C1CC(c2csc(C3CCN(C(=O)Cn4nc(C(F)(F)F)cc4C)CC3)n2)=NO1 (stereo not drawn) [Example I-46] | 94 | 94
15 | CC(=O)OCc1ccccc1C1CC(c2csc(C3CCN(C(=O)Cn4nc(C(F)(F)F)cc4C)CC3)n2)=NO1 (stereo not drawn) [Example I-47] | 94 | 90
16 | C#CCOCc1ccccc1C1CC(c2csc(C3CCN(C(=O)Cn4nc(C(F)F)cc4C(F)F)CC3)n2)=NO1 (stereo not drawn) [Example I-53] | 94 | 96
17 | Cc1ccc(Cl)cc1NC(=O)N1CCC(c2nc(C3=NOC(c4c(Cl)cccc4OS(C)(=O)=O)C3)cs2)CC1 (stereo not drawn) [Example I-54] | 94 | 100
18 | CC(=O)OCc1ccccc1C1CC(c2csc(C3CCN(C(=O)Cn4nc(C(F)F)cc4C(F)F)CC3)n2)=NO1 (stereo not drawn) [Example I-55] | 94 | 92

Row | Structure (SMILES) | Eff. % (Phytophthora infestans) [%] | Eff. % (Plasmopara viticola) [%]
19 | COCCS(=O)(=O)Cc1ccccc1C1CC(c2csc(C3CCN(C(=O)Cn4nc(C(F)F)cc4C(F)F)CC3)n2)=NO1 (stereo not drawn) [Example I-57] | 94 | 90
20 | N#CCOc1ccccc1C1CC(c2csc(C3CCN(C(=O)Cn4nc(C(F)F)cc4C(F)F)CC3)n2)=NO1 (stereo not drawn) [Example I-63] | 94 | 100
21 | O=C(Cn1nc(C(F)F)cc1C(F)F)N1CCC(c2nc(C3=NOC(c4ccccc4OS(=O)(=O)C4CC4)C3)cs2)CC1 (stereo not drawn) [Example I-64] | 100 | 100
22 | Cc1ccc(C)c(NC(=O)N2CCC(c3nc(C4=NOC(c5ccccc5OS(C)(=O)=O)C4)cs3)CC2)c1 (stereo not drawn) [Example I-74] | 100 | 100
23 | Cc1cc(C(F)F)nn1CC(=O)N1CCC(c2nc(C3=NOC(c4ccccc4OCC#N)C3)cs2)CC1 (stereo not drawn) [Example I-76] | 100 | 93
24 | CCS(=O)(=O)Oc1cccc(C2CC(c3csc(C4CCN(C(=O)Cn5nc(C(F)F)cc5C(F)F)CC4)n3)=NO2)c1 (stereo not drawn) [Example I-77] | 98 | 93
25 | Cc1cc(C(F)(F)F)nn1CC(=O)N1CCC(c2nc(C3=NOC(c4c(Cl)cccc4OCC#N)C3)cs2)CC1 (stereo not drawn) [Example I-78] | 80 | 97
26 | N#CCOc1ccc(C2CC(c3csc(C4CCN(C(=O)Cn5nc(C(F)F)cc5C(F)F)CC4)n3)=NO2)cc1 (stereo not drawn) [Example I-81] | 100 | 99
27 | C/C=C/C(=O)Oc1ccccc1C1CC(c2csc(C3CCN(C(=O)Cn4nc(C(F)F)cc4C(F)F)CC3)n2)=NO1 (stereo not drawn) [Example I-82] | 70 | 94
28 | O=C(Cn1nc(C(F)F)cc1C(F)F)N1CCC(c2nc(C3=NOC(c4cccc(OS(=O)(=O)C5CC5)c4)C3)cs2)CC1 (stereo not drawn) [Example I-83] | 98 | 94
29 | O=C(Cn1nc(C(F)F)cc1C(F)F)N1CCC(c2nc(C3=NOC(c4cc(F)ccc4OS(=O)(=O)C4CC4)C3)cs2)CC1 (stereo not drawn) [Example I-84] | 90 | 100
30 | CS(=O)(=O)Oc1c(F)cccc1C1CC(c2csc(C3CCN(C(=O)Cn4nc(C(F)F)cc4C(F)F)CC3)n2)=NO1 (stereo not drawn) [Example I-85] | 75 | 100
31 | Cc1cc(C(F)(F)F)nn1CC(=O)N1CCC(c2nc(C3=NOC(c4c(F)cccc4OCC#N)C3)cs2)CC1 (stereo not drawn) [Example I-86] | 75 | 99
32 | N#CCCn1cccc1C1CC(c2csc(C3CCN(C(=O)Cn4nc(C(F)F)cc4C(F)F)CC3)n2)=NO1 (stereo not drawn) [Example I-87] | 80 | 95
33 | CS(=O)(=O)Oc1cccc(Cl)c1C1CC(c2csc(C3CCN(C(=O)Cn4nc(C(F)F)cc4C(F)F)CC3)n2)=NO1 (stereo not drawn) [Example I-102] | 75 | 100
34 | Cc1cc(C(F)(F)F)nn1CC(=O)N1CCC(c2nc(C3=NOC(c4c(Cl)cccc4OS(C)(=O)=O)C3)cs2)CC1 (stereo not drawn) [Example I-103] | 80 | 100
35 | O=CNc1ccccc1C1CC(c2csc(C3CCN(C(=O)Cn4nc(C(F)F)cc4C(F)F)CC3)n2)=NO1 (stereo not drawn) [Example I-108] | 100 | 93
36 | CSCOc1ccccc1C1CC(c2csc(C3CCN(C(=O)Cn4nc(C(F)F)cc4C(F)F)CC3)n2)=NO1 (stereo not drawn) [Example I-112] | 94 | 100
